# Laboratory results: patent publication US9676752B2, “Imidazolidine-2,4-dione derivatives” (IPSEN PHARMA S.A.S., priority 2013, dated 2017)
# Columns and labels:
# [1] = system: LNCaP; assay: Anti-proliferative activity on LNCaP in complete medium; format: cell-based; conditions: Homo sapiens, 144 h incubation, Cell-Titer-Glow
# Method: 1. Anti-Proliferative Activity on LNCaP in Complete Medium
# The anti-proliferative activity of the compounds of the present invention is determined on LNCaP in complete medium by applying the following experimental procedure:
# The LNCaP cell type (ATCC, 1740) originates from a prostate carcinoma. This line expresses the androgen receptor and is hormone-dependent.
# (§1) Maintenance of the LNCaP line is carried out in complete culture medium: RPMI, 10% of fetal calf serum, 2 mM glutamine, 100 U/ml penicillin, 0.1 mg/ml of streptomycin and 0.01M HEPES, 1 mM sodium pyruvate, 40% of D-glucose. • Seeding the plates: The LNCaP line is seeded at 20,000 cells/well in 90 μl of complete medium in 96-well plates coated with poly-D-lysine (Biocoat, Costar). • Treatment of the cells: 24 h after the seeding, the cells are treated with 10 μl/well of compound diluted in the culture medium. The concentrations used are the following: 1 nM/10/30/100/300/1000/3000/10,000 nM. The cells are incubated for 144 h at 37° C., 5% CO2. • Reading: After incubation for 6 days, cell proliferation was determined by Cell-Titer-Glow (CTG) Luminescent Cell Viability Assay. • Results: The experiments are carried out in duplicate and the best compounds are tested twice. A concentration value inhibiting the cell proliferation by 50% (IC50) is calculated.
# [2] = system: DU145; assay: Anti-proliferative activity on DU145 in complete medium; format: cell-based; conditions: Homo sapiens, DU-145, 144 h incubation, Cell-Titer-Glow, line does not express androgen receptor
# Method: 2. Anti-Proliferative Activity on DU145 in Complete Medium
# as §1, with “It is used to evaluate the selectivity” for “Maintenance”, “compounds for androgen receptor expressing cells. No activity of the compounds is expected. • The cells of the DU145” for “LNCaP”, “(ATCC HTB-81) are” for “is carried out in complete culture medium: RPMI, 10% of fetal calf serum, 2 mM glutamine, 100 U/ml penicillin, 0.1 mg/ml of streptomycin and 0.01M HEPES, 1 mM sodium pyruvate, 40% of D-glucose. • Seeding the plates: The LNCaP line is”, “800” for “20,000”, “Assay” for “Assay.”
# [3] = system: VCaP; assay: Anti-proliferative activity on VCaP in complete medium; format: cell-based; conditions: Homo sapiens, 216 h, Cell-Titer-Glow, reading after 9 days
# Method: 3. Anti-Proliferative Activity on VCaP in Complete Medium • The cells of the VCaP line (ATCC CRL-2876) are seeded at 20000 cells/well in 90 μl of complete medium in 96-well plates coated with poly-D-lysine (Biocoat, Costar). • Treatment of the cells: 24 h after the seeding, the cells are treated with 10 μl/well of compound diluted in the culture medium. The concentrations used are the following: 1 nM/10/30/100/300/1000/3000/10,000 nM. The cells are incubated for […] at 37° C., 5% CO2. • Reading: After incubation for […], cell proliferation was determined by Cell-Titer-Glow (CTG) Luminescent Cell Viability Assay • Results: The experiments are carried out in duplicate and the best compounds are tested twice. A concentration value inhibiting the cell proliferation by 50% (IC50) is calculated.
# [4] = molecular target: T1, androgen receptor (Homo sapiens, UniProt P10275, T878A); assay: Measurement of protein expression of the androgen receptor in LNCaP cells (AR ELISA); format: cell-based; conditions: 3 days treatment, whole cell protein, AR ELISA kit; read-out: IC50 AR destruction in LNCaP
# T1 construct: This line expresses the androgen receptor and is hormone-dependent; endogenous in cells; host or cells: LNCaP (ATCC, 1740)
# T1 sequence (P10275 1-920 T878A): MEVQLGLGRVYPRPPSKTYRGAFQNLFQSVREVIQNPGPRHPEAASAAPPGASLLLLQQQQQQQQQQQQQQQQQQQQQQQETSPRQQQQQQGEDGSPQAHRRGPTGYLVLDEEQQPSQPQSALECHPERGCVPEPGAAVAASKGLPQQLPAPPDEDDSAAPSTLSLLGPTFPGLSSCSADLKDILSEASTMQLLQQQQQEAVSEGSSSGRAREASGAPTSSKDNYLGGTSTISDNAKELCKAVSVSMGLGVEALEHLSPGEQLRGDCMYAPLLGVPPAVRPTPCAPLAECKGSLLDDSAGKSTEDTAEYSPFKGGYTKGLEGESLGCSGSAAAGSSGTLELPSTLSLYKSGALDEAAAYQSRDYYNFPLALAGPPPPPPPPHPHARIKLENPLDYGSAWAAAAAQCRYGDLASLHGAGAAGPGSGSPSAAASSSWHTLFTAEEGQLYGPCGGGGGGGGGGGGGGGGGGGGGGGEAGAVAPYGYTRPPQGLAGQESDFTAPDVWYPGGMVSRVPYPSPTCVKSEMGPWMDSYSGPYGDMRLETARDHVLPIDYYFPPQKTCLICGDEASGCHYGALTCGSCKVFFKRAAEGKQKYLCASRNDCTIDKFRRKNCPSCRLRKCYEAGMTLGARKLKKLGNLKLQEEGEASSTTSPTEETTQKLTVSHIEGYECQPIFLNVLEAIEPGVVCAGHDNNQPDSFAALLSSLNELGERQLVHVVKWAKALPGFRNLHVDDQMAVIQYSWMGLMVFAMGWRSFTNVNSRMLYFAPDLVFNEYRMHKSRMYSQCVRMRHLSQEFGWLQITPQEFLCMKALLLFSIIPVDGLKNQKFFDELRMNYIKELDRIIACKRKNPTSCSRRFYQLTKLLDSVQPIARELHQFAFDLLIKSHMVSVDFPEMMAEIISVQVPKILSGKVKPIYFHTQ
# Method: Measurement of Protein Expression of the Androgen Receptor
# The cells of the LNCaP line are seeded at a rate of 2.5 million of cells per 10 cm Petri dish and maintained in 8 ml RPMI-1640 for 4 days. After 4 days incubation, 4 ml of medium were removed from the Petri dish and 5 ml fresh medium was added carefully. 1 ml of compounds 10-fold diluted in complete medium at concentrations from 3×10^-6 M to 10^-8 M. Cells were treated with the compounds for additional 3 days. The whole cell protein was extracted by Nuclear Extract kit and quantitated by the Bradford Protein Assay. The effect of compounds on AR levels in LNCaP cells was then determined by an AR ELISA kit.
# [5] = Evaluation of solubility in potassium phosphate buffer pH 7.4; format: physicochemical; conditions: aqueous buffer, kinetic from dmso stock; 100 mM potassium phosphate buffer pH 7.4, target 10 μM, 0.1% DMSO, 1 hour room temperature, LC-MS/MS
# Method: Evaluation of Solubility:
# Test compounds were prepared as stock solutions at […] in DMSO. The stock solutions were diluted, in duplicate, into 100 mM potassium phosphate buffer (pH 7.4) to a target concentration of 10 μM with a final DMSO concentration of 0.1%. The solutions were shaken at 1000 rpm for 1 hour at room temperature followed by centrifugation for 10 minutes at 1200 rpm to precipitate un-dissolved particles. The supernatants were transferred to new tubes and the samples were further prepared as follows: • Undiluted: 5 μL of supernatant to 95 μL of ACN containing internal standard (IS) • 1:10 diluted: 10 μL of the supernatant into 90 μL K-buffer, mix, then transfer 5 μL of 1:10 diluted samples to 95 μL ACN containing IS • 1:100 diluted: 10 μL of the supernatant into 990 μL K-buffer, mix, then transfer 5 μL of 1:100 diluted samples to 95 μL of ACN containing IS
# Samples (undiluted, 1:10 diluted, and 1:100 diluted) along with the standards were analyzed by LC-MS/MS.
# [6] = system: human prostate cancer cells; conditions: agonist activity in place of antagonist activity; cited from earlier work
SMILES,IC50 [1],IC50 [2],IC50 [3],DC50 [4],solubility at 1 h [5],effect on growth of human prostate cancer cells in culture [6]
"CC1(C)C(=O)N(c2ccc(S(C)(=O)=O)c(C(F)(F)F)c2)C(=O)N1C/C=C\CN1C(=O)N(c2cnc(C#N)c(C(F)(F)F)c2)C(=O)C1(C)C [Example 2, (Z)-5-(3-(4-(5,5-dimethyl-3-(4-(methylsulfonyl)-3-(trifluoromethyl)phenyl)-2,4-dioxoimidazolidin-1-yl)but-2-en-1-yl)-4,4-dimethyl-2,5-dioxoimidazolidin-1-yl)-3-(trifluoromethyl)picolinonitrile]",1.59 µM,> 10 µM,1.05 µM,0.946 µM,0.14 µM,
"CC1(C)C(=O)N(c2ccc(C#N)c(C(F)(F)F)c2)C(=O)N1C/C=C\CN1C(=O)N(c2ccc(S(C)(=O)=O)c(C(F)(F)F)c2)C(=O)C1(C)C [Example 1, (Z)-4-(3-(4-(5,5-dimethyl-3-(4-(methylsulfonyl)-3-(trifluoromethyl)phenyl)-2,4-dioxoimidazolidin-1-yl)but-2-en-1-yl)-4,4-dimethyl-2,5-dioxoimidazolidin-1-yl)-2-(trifluoromethyl)benzonitrile]",0.313 µM,> 10 µM,0.551 µM,0.123 µM,2.66 µM,
"CC1(C)C(=O)N(c2ccc(C#N)c(C(F)(F)F)c2)C(=O)N1C/C=C\CN1CC(=O)N(c2ccc(S(C)(=O)=O)c(C(F)(F)F)c2)C1=O [Example 3, (Z)-4-(4,4-dimethyl-3-(4-(3-(4-(methylsulfonyl)-3-(trifluoromethyl)phenyl)-2,4-dioxoimidazolidin-1-yl)but-2-en-1-yl)-2,5-dioxoimidazolidin-1-yl)-2-(trifluoromethyl)benzonitrile]",1.12 µM,> 10 µM,,,0.53 µM,
CC1(C)NC(=O)N(c2ccc([N+](=O)[O-])c(C(F)(F)F)c2)C1=O [nilutamide],,,,,,capable of stimulating the growth
